One compound from US20030215498A1, “Rapidly disintegrating comressed tablets comprising biologically active compounds” (priority 2002, published 2003) can be followed below.

The nature of the data set: Dissolution testing of acetaminophen particles (USP XXIII, Apparatus 2, paddle). In kind it is physicochemical. Conditions: 900 ml water, 37° C., USP Apparatus 2, paddle 50 rpm, amount equivalent to 500 mg acetaminophen, n = 6. The protocol: Dissolution testing of the acetaminophen particles was carried out using USP XXIII “Acetaminophen capsules” and “Dissolution '711”, which are incorporated herein by reference. The method was adapted to use a relevant quantity of powder, i.e. an amount equivalent to 500 mg of acetaminophen in the dissolution bowl. This quantity represents a standard amount of […] in marketed U.S.A. over-the-counter (OTC) products. The operating conditions included 900 ml of water at 37° C. in a USP Apparatus 2 with paddle speed set at 50 rpm. FIG. 1 presents the dissolution-curves of acetaminophen and 4.6% lipid-based coated acetaminophen, i.e. 4.6% coating and 95.4% acetaminophen.

Regarding `CC(=O)Nc1ccc(O)cc1` [100% Acetaminophen, Acetaminophen], the Dissolution % is on record as 66.3% (5 min); 90.8% (10 min); 95.7% (15 min); 97.1% (20 min); 97.5% (30 min); 97.7% (45 min). Further, the Dissolution % (60 min) amounted to 97.7%.
